# From US20220291217A1, “GASTRIC CANCER MARKER AND EXAMINATION METHOD USING SAME” (JAPANESE FOUNDATION FOR CANCER RESEARCH, priority 2019, published 2022)
# Test system: SNU-1 cells
# Experiment: Staurosporine-induced apoptosis, Annexin V/7AAD flow cytometry
# Format: cell-based, human
# Conditions: staurosporine 1.0 μM
# Protocol: Staurosporine (STS), a kinase inhibitor, was added to the above cells at 1.0 μM to induce apoptosis (FIG. 4b). Apoptosis was detected with Annexin V, 7AAD kit (BD Bioscience), and analyzed by flow cytometry, BD FACSCalibur (BD Bioscience).
structure (smiles),measurement,setting,value
"CN[C@@H]1C[C@H]2O[C@@](C)([C@@H]1OC)n1c3ccccc3c3c4c(c5c6ccccc6n2c5c31)C(=O)NC4 [staurosporine, Staurosporine]",cells in which apoptosis is induced,"SNU-1 cells that do not express CA1, within 3 hours",19.3%
same,cells in which apoptosis was induced,SNU-1 cells with forcedly expressed 3'-FLAG-tagged CA1,6.1%
